Experimental data: paper PMC6835155, “Lessons from LIMK1 enzymology and their impact on inhibitor design” (Biochemical Journal, 2019)

Key:
LIMK1KD = target: T1, LIMK1KD (Homo sapiens, UniProt P53667); experiment: Differential (dynamic) scanning fluorimetry (DSF) assay, LIMK1KD; assay type: binding; conditions: 2 µM LIMK1KD, compound 10 µM, single shot; for ΔTm at 10 µM: read-out: TM Shift LIMK1 (K)
T1 construct: His6 (N, cleaved yes); made in house; host or cells: baculovirus; Sf9 for virus, TriEx insect cells for expression

LIMK2KD = target: T2, LIMK2KD (Homo sapiens, UniProt P53671); experiment: Differential (dynamic) scanning fluorimetry (DSF) assay, LIMK2KD; assay type: binding; conditions: LIMK2KD, compound 10 µM, single shot; for ΔTm at 10 µM: read-out: TM Shift LIMK2 (K)
T2 construct: The cDNA coding for LIMK2 residues 330 to 632 was PCR amplified; His6 (N, cleaved yes); made in house; host or cells: baculovirus; Sf9 for virus, TriEx insect cells for expression
T2 sequence (P53671 330-632): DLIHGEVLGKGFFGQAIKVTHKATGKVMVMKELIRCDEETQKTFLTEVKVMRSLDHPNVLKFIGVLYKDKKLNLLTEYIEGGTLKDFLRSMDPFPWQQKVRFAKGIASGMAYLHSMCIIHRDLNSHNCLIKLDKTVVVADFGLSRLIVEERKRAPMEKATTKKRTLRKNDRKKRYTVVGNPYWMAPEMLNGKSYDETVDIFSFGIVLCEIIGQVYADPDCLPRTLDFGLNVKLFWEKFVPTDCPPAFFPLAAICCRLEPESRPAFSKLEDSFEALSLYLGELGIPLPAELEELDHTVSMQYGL

T1 sequence (P53667 330-637): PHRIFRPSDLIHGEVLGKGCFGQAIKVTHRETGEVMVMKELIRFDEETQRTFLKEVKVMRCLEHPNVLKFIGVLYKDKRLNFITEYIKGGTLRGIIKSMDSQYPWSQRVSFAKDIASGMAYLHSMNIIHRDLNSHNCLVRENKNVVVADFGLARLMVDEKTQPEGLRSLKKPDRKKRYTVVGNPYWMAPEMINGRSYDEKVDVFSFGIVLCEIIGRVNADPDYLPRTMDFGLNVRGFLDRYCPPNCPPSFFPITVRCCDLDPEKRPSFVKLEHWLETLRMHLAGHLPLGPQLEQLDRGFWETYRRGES

SMILES	TM Shift LIMK1 (K) (LIMK1KD)	TM Shift LIMK2 (K) (LIMK2KD)	ΔTm at 10 µM (LIMK1KD) [°C]	ΔTm at 10 µM (LIMK2KD) [°C]	also measured
O=C1NC(=O)C(=Cc2ccc(-c3ccc(F)cc3)o2)S1 (stereo in doubt) [CAY10505]	0.7	2.3			
Cn1cnc(N)c2ncnc1-2 [3-Methyladenine]			0.4	0.5	
CCc1ccc(/C=C2/SC(=S)NC2=O)cc1 [10058-F4]	0.3	1.7			
COc1cc(O)c2c(c1)/C=C/C[C@H](O)[C@H](O)C(=O)/C=C\C[C@H](C)OC2=O [(5Z)-7-Oxozeaenol]	2.8	0.7			
Cc1nc(NC(=O)N2CCC[C@H]2C(N)=O)sc1-c1csc(C(C)(C)C)n1 [A66]	0.0	1.0			
Cc1[nH]nc2ccc(-c3cncc(OC[C@@H](N)Cc4ccccc4)c3)cc12 [A-674563]	0.8	0.2			
N#Cc1c(O)c2c(-c3ccc(-c4ccccc4O)cc3)csc2[nH]c1=O [A-769662]	0.9	2.4			
CCN1CCN(Cc2ccc(-c3cc4c(N[C@H](C)c5ccccc5)ncnc4[nH]3)cc2)CC1 [AEE788 (NVP-AEE788)]			4.7	4.5	
N#CC(C#N)=Cc1ccc(O)c(O)c1 [AG-18]	0.1	0.6			
N#C/C(=C\c1ccc(O)c(O)c1)C(=O)NCc1ccccc1 [AG-490 (Tyrphostin B42), Tyrphostin B42]	0.7	0.9			
CC(C)(C)c1cc(C=C(C#N)C#N)cc(Br)c1O [AG-1024]	2.5	4.3			
COc1cc2ncnc(Nc3cccc(Cl)c3)c2cc1OC [AG-1478 (Tyrphostin AG-1478), Tyrphostin AG-1478]			1.4	-0.2	
COc1ccc2c(Oc3ccc(NC(=O)c4c(C)n(CC(C)(C)O)n(-c5ccccc5)c4=O)nc3)ccnc2c1 [AMG-458]	1.3	-0.8			
Cc1csc(-c2nnc(Nc3ccc(Oc4ncccc4-c4ccnc(N)n4)cc3)c3ccccc23)c1 [AMG-900]			0.5	-2.1	
COc1cc(N2CCC(N3CCN(C)CC3)CC2)ccc1Nc1ncc(Cl)c(Nc2ccccc2P(C)(C)=O)n1 [AP26113]			3.4	0.1	
COc1ccc(CNC(=O)Nc2ncc([N+](=O)[O-])s2)cc1 [AR-A014418]	1.4	1.0			
O=C1NC(=O)/C(=C/c2ccc(-c3ccc(F)cc3O)o2)S1 [AS-252424]	-0.1	3.0			
O=C1NC(=O)/C(=C/c2ccc3c(c2)OC(F)(F)O3)S1 [AS-604850]	0.3	2.2			
COc1cc(N2CCC(N3CCN(C)CC3)CC2)ccc1Nc1ncnc(Nc2ccccc2S(=O)(=O)C(C)C)n1 [ASP3026]			3.7	1.4	
C=CC(=O)Nc1ccc2ncnc(Nc3ccc(OCc4cccc(F)c4)c(Cl)c3)c2c1 [AST-1306]			0.4	0.1	
O=C(NC1CCNCC1)c1[nH]ncc1NC(=O)c1c(Cl)cccc1Cl [AT7519]			1.2	1.3	
Clc1ccc(C2(c3ccc(-c4cn[nH]c4)cc3)CCNCC2)cc1 [AT7867]	0.9	1.4			
O=C(Nc1c[nH]nc1-c1nc2ccc(CN3CCOCC3)cc2[nH]1)NC1CC1 [AT9283]			9	4	
C=CC(=O)Nc1cccc(Nc2nc(Nc3ccc(OCCOC)cc3)ncc2F)c1 [AVL-292]			3.8	3.1	
C[C@@H]1COCCN1c1cc(C2(S(C)(=O)=O)CC2)nc(-c2cccc3[nH]ccc23)n1 [AZ20]	0.8	-0.8			
COc1cc(OC2CCN(C)CC2)ccc1Nc1ncc2c(n1)n(C1CCCC1)c(=O)n2C [AZ3146]			0.4	0	

SMILES	TM Shift LIMK1 (K) (LIMK1KD)	TM Shift LIMK2 (K) (LIMK2KD)	ΔTm at 10 µM (LIMK1KD) [°C]	ΔTm at 10 µM (LIMK2KD) [°C]	also measured
Cc1ccc(NC(=O)c2cccc(C(C)(C)C#N)c2)cc1Nc1ccc2ncn(C)c(=O)c2c1 [AZ 628]	0.3	1.2			
Cc1cc(Nc2nc(N[C@@H](C)c3ccc(F)cc3)c(C#N)cc2F)[nH]n1 [AZ 960]			6	0.1	
N#Cc1ccc2[nH]c(O)c(-c3ccc(CN4CCOCC4)cn3)c2c1 [AZD1080]			0.5	2.3	
CCN(CCO)CCCOc1ccc2c(Nc3cc(CC(=O)Nc4cccc(F)c4)[nH]n3)ncnc2c1 [AZD1152-HQPA, Barasertib]	0.6				TM Shift LIMK1 (K) (LIMK1KD; listed as Barasertib (AZD1152-HQPA)): 0.2 K; TM Shift LIMK2 (K) (LIMK2KD; 10 µM): 0.7 K; TM Shift LIMK2 (K) (LIMK2KD; listed as Barasertib (AZD1152-HQPA), 10 µM): -0.2 K
Cc1cc(Nc2nc(N[C@@H](C)c3ncc(F)cn3)ncc2Cl)n[nH]1 [AZD1480]			4.7	0.6	
CNC(=O)c1cccc(-c2ccc3c(N4CCOC[C@@H]4C)nc(N4CCOC[C@@H]4C)nc3n2)c1 [AZD2014]			0.2	-0.3	
COc1cc(N2CCC(N)CC2)ccc1Nc1ncc(Cl)c(-c2c[nH]c3ccccc23)n1 [AZD3463]	2.5	3.1			
Cc1ncc(-c2ccnc(Nc3ccc(S(C)(=O)=O)cc3)n2)n1C(C)C [AZD5438]			4.4	1.7	
Cc1cc([C@@H](C)Nc2ccccc2C(=O)O)c2nc(N3CCOCC3)cc(=O)n2c1 [AZD6482]			0.7	1.8	
COc1ccc(-c2ccc3c(N4CCOC[C@@H]4C)nc(N4CCOC[C@@H]4C)nc3n2)cc1CO [AZD8055]			0.9	0.8	
Cc1cc(C(=O)NOCCO)c(Nc2ccc(I)cc2F)n(C)c1=O [AZD8330]			0.3	0.2	
CNC(=O)CN1CCC(Oc2cc3c(Nc4cccc(Cl)c4F)ncnc3cc2OC)CC1 [AZD8931 (Sapitinib), Sapitinib]			0.9	0.6	
NC(=O)c1ncn([C@@H]2O[C@H](CO)[C@@H](O)[C@H]2O)c1N [Acadesine]			0.7	2.1	
CCc1cc2c(cc1N1CCC(N3CCOCC3)CC1)C(C)(C)c1[nH]c3cc(C#N)ccc3c1C2=O [Alectinib (CH5424802), Alectinib]			-1.6	1.1	
COc1cc(Nc2ncc3c(n2)-c2ccc(Cl)cc2C(c2c(F)cccc2OC)=NC3)ccc1C(=O)O [Alisertib (MLN8237), Alisertib]			-0.3	1.8	
CN1CC[C@H](c2c(O)cc(O)c3c(=O)cc(-c4ccccc4Cl)oc23)[C@H](O)C1 [Alvocidib]			1.9	0.5	
S=C(NCc1ccc2c(c1)OCO2)N1CCN(c2ncnc3c2oc2ccccc23)CC1 [Amuvatinib (MP-470), Amuvatinib]			-0.3	2.3	
N#CC1(c2ccc(NC(=O)c3cccnc3NCc3ccncc3)cc2)CCCC1 [Apatinib]			0.2	3.8	
Cc1c(CN2CCN(C(=O)[C@H](C)O)CC2)sc2c(N3CCOCC3)nc(-c3cnc(N)nc3)nc12 [Apitolisib]			1.6	0.6	
C[C@H]1[C@H](C)CC[C@]2(C(=O)O)CC[C@]3(C)C(=CC[C@@H]4[C@@]5(C)C[C@@H](O)[C@H](O)[C@@](C)(CO)[C@@H]5CC[C@]43C)[C@H]12 [Asiatic Acid]			-0.9	1.7	
CCN1CCN(C(=O)Cc2ccc(Nc3ncc(F)c(Nc4ccc(C(=O)Nc5ccccc5Cl)cc4)n3)cc2)CC1 [Aurora A Inhibitor I]	4.9	3.7			
CNC(=O)c1ccccc1Sc1ccc2c(/C=C/c3ccccn3)n[nH]c2c1 [Axitinib]			2	-0.7	
Cc1ccc(Nc2nccc(N(C)c3ccc4c(C)n(C)nc4c3)n2)cc1S(N)(=O)=O [Pazopanib]				6.2	
O=c1c(O)c(-c2ccc(O)c(O)c2)oc2cc(O)cc(O)c12 [Quercetin]				3.9	
CNC(=O)c1cc(Oc2ccc(NC(=O)Nc3ccc(Cl)c(C(F)(F)F)c3)cc2)ccn1 [Sorafenib]	-0.7				
